Laboratory results published in ChEMBL document CHEMBL3046611, “Anti-tubercular agents from Ammannia baccifera (Linn.)” (2013).
≈ marks a conversion by molar mass, not a printed value.

What was measured:
[1] = system: Mycobacterium tuberculosis; experiment: Antitubercular activity against Mycobacterium tuberculosis H37Rv ATCC 27294 assessed as growth inhibition after 24 hr by BACTEC-460 radiometric susceptibility assay; format: functional; conditions: H37Rv ATCC 27294, 24 h
[2] = system: Mycobacterium tuberculosis; experiment: Antimycobacterial activity against Mycobacterium tuberculosis H37Rv ATCC 27294 assessed as growth inhibition by agar dilution method; format: functional

SMILES	MIC [1]	MIC [2]
COc1cc(C(=O)O[C@H]2CCC(=O)c3ccccc32)cc(OC)c1OC [4-O-(3,4,5-TRIMETHOXYBENZOYL)-ALPHA-TETRALONE]	100 µg/mL (≈ 281 µM)	–
O=C(O[C@H]1CCC(=O)c2ccccc21)c1ccccc1 [4-O-BENZOYL-ALPHA-TETRALONE]	100 µg/mL (≈ 376 µM)	–
COc1cccc(C(=O)O[C@H]2CCC(=O)c3ccccc32)c1 [4-O-META-ANISOYL-ALPHA-TETRALONE]	100 µg/mL (≈ 337 µM)	–
CCCCCCCCCCCCCC(=O)O[C@H]1CCC(=O)c2ccccc21 [4-O-MYRICITOYL-ALPHA-TETRALONE]	50 µg/mL (≈ 134 µM)	–
CCCCCCCCCCCCCCCC(=O)O[C@H]1CCC(=O)c2ccccc21 [4-O-PALMITOYL-ALPHATETRALONE]	100 µg/mL (≈ 250 µM)	–
O=C1CC[C@H](O)c2ccccc21 [(-)-4-HYDROXY-ALPHA-TETRALONE]	50 µg/mL (≈ 308 µM)	4 µg/mL (≈ 24.7 µM)
O=C1CC[C@H](O[C@@H]2O[C@H](CO)[C@@H](O)[C@H](O)[C@H]2O)c2ccccc21 [TETRALONE-4-O-BETA-D-GLUCOPYRANOSIDE]	100 µg/mL (≈ 308 µM)	–
